Experimental findings from patent US5635520A, “Anti-ulcer compositions suitable for rectal administration” (Takeda Chemical Industries, Ltd., priority 1993, dated 1997) are described below.

Data set [1] can be described thus: Stability of lansoprazole composition for rectal administration: change in color on storage at 40° C. and 75% relative humidity (Experimental Example 2). It counts as physicochemical. Particulars: relative humidity 75%, conclusion from Table 2. As to the method:
(§1) After each of them was melted by warming at 60° C., 20 mg of lansoprazole and a specified amount [See Table 1] of sodium oleate were admixed with the base to prepare a composition. Each composition was stored at room temperature (25° C.) and the change in color was evaluated by comparing it with the composition prior to storage.
Using different fatty acid salts, the stability of lansoprazole in compositions for rectal administration was evaluated by the same procedure as Experiment Example 1. EPG-4000 or Witepsol W-35 was used as the base and sodium oleate, sodium palmitate or sodium caprate was used as the fatty acid salt, each in the amount indicated in Table 2. In this stability test, the test compositions were stored at a temperature of 40° C. and a relative humidity of 75%.

Data set [2] is described as follows: Stability of lansoprazole composition for rectal administration: change in color on storage at room temperature (25° C.) (Experiment Example 1). It counts as physicochemical. Particulars: conclusion from Table 1. As to the method: Using PEG-4000 (Wako Pure Chemical Industries, Japan) or Witepsol W-35 (Dynamit Novel, Germany) as a base for rectal administration, the stability of lansoprazole in the composition was compared between the inclusion of sodium oleate and the exclusion of sodium oleate.
as §1

Data set [3] is described as follows: in vivo. On the set-up: species or system Male SD rats. To be noted: rat, plasma; for AUC at 8 h: 0-8 hr, read-out: AUC0^8 (Area under the plasma concentration time curve). As for the experimental part: In the same manner as Experiment Example 1 mentioned above, 960 mg of PEG-6000, 20 mg of lansoprazole and 20 mg of sodium oleate were evenly melted and dispersed. The resulting dispersion was filled in 200 mg portions into metallic rectal suppository containers for rats and cooled to provide composition for rectal administration for rats. In addition, using 960 mg of Witepsol W-35 (Dynamit Nobel), 20 mg of lansoprazole and 20 mg of sodium oleate, composition for rectal administration for rats in otherwise the same manner as above.
Male SD rats weighing 250-280 g (Japan Clea) were provided. The animals were allowed food and water ad libitum and, then, fasted for about 16 hours (water was available ad libitum). Using the rats fasted for about 16 hours, the composition for rectal administration prepared above were inserted into the anus and, to prevent expulsion of the drug, the perianal skin was clipped.
For control purposes, 80 mg of lansoprazole, 1.5 ml of PEG-400 and 9.5 ml of 0.5% aqueous solution of sodium hydrogen carbonate were admixed to prepare an injectable solution. This solution was injected, in a volume of 0.25 ml, into the femoral vein of each rat (intravenous dosing).
At 0.08, 0.17, 0.25, 0.5, 1.0, 2.0, 4.0 and 8.0 hours after administration,the blood was drawn from the caudal vein of rats using a blood sampling tube containing a small amount of heparin. Each blood sample was centrifuged (3000 rpm, 10 min.) to separate the plasma (0.1 ml) and lansoprazole in each plasma sample was assayed. The assay method was as follows. To 0.1 ml of plasma were added 0.5 ml of 0.5% aqueous solution of sodium hydrogen carbonate and 3 ml of chloroform and the mixture was shaken vigorously for about 5 minutes and centrifuged at 2500 rpm for about 5 minutes. The under layer (chloroform layer), 2 ml, was taken and the solvent chloform was evaporated off by blasting with nitrogen gas. The residue was redissolved in 0.2 ml of HPLC mobile phase and subjected to HPLC analysis (injection amount 50 μl) under the following conditions.
Column: YMC A-303 (5 μm), 4.6 mm in internal diameter and 25 cm in length (YMC).
Mobile phase: a mixture of water, acetonitrile and triethylamine (60:40:1) adjusted to pH 7.0 with phosphoric acid.
Detection: A UV spectrophotometer (exciting wavelength 285 nm)
Column temperature: Room temperature

Setting [4] is: Rectal, Oleaginous base (Witepsol W-35) with sodium oleate.
[5] abbreviates: Rectal, Water-soluble base (PEG-6000) with sodium oleate.

Each structure is given as a SMILES string. Where two headings read alike, the source gives them in different places.

`CCCCCCCCCC(=O)[O-].[Na+]` [sodium caprate]: in data set [1], the “contribution to the stability of the active drug” value (from here on “contribution to the stability”) was “contributed a great deal to the stability of the active drug”.

Regarding `CCCCCCCCCCCCCCCC(=O)[O-].[Na+]` [sodium palmitate], the “contribution to the stability” value in data set [1] was “contributed a great deal to the stability of the active drug”.

Take `CCCCCCCC/C=C\CCCCCCCC(=O)[O-].[Na+]` [sodium oleate]: the stabilization of lansoprazole result in data set [2] was “stabilized lansoprazole”. In data set [1], the “contribution to the stability” value is “contributed a great deal to the stability of the active drug”.

As for `Cc1c(OCC(F)(F)F)ccnc1C[S+]([O-])c1nc2ccccc2[nH]1` (stereo not shown) [lansoprazole, 2-[2-[3-methyl-4-(2,2,2-trifluoroethoxy)pyridyl]methylsulfinyl]benzimidazole], in data set [3] (setting [4]), the AUC at 8 h amounted to 1080 ng·h/mL, the concentration at 0.08 h is 90 ng/mL, the concentration at 0.17 h was found to be 140 ng/mL and the concentration at 0.25 h was found to be 210 ng/mL. For the same compound, in data set [3] (setting [4]), the concentration at 0.5 h came to 310 ng/mL, the concentration at 1 h was found to be 360 ng/mL, the concentration at 2 h is 180 ng/mL and the concentration at 4 h is 90 ng/mL. The compound also had a concentration at 8 h in data set [3] (setting [4]) of 50 ng/mL. In data set [3] (setting [5]), the AUC at 8 h was found to be 890 ng·h/mL, the concentration at 0.08 h was 160 ng/mL, the concentration at 0.17 h worked out at 240 ng/mL and the concentration at 0.25 h stood at 310 ng/mL. In data set [3] (setting [5]), this compound came in with a concentration at 0.5 h of 420 ng/mL, a concentration at 1 h of 330 ng/mL, a concentration at 2 h of 110 ng/mL and a concentration at 4 h of 60 ng/mL. The compound also displayed a concentration at 8 h in data set [3] (setting [5]) of 30 ng/mL. Moreover, in data set [3] (iv), the AUC at 8 h worked out at 3860 ng·h/mL, the concentration at 0.08 h came out at 6960 ng/mL, the concentration at 0.17 h worked out at 5390 ng/mL and the concentration at 0.25 h was determined as 4830 ng/mL. Besides, in data set [3] (iv), the concentration at 0.5 h was 3280 ng/mL, the concentration at 1 h worked out at 910 ng/mL, the concentration at 2 h worked out at 70 ng/mL and the concentration at 4 h came to 5 ng/mL. In data set [3] (iv), this compound returned a concentration at 8 h of 2 ng/mL.
